The values below come from US10844057B2, “Process for preparing JAK inhibitors and intermediates thereof” (priority 2018, dated 2020).

In data set [1] the test system is TSLP-evoked TARC release in human peripheral blood mononuclear cells. The data set can be described thus: Inhibition of TSLP-evoked TARC release in human peripheral blood mononuclear cells. It counts as cell-based. The conditions noted are these: Homo sapiens, PBMC, 48 h, read-out: pIC50 ± st. dev., inhibition of TSLP-evoked TARC release (converted). From the text: Assay 4: Inhibition of TSLP-Evoked TARC Release in Human Peripheral Blood Mononuclear Cells
Thymic stromal lymphopoietin (TSLP) and thymus and activation-regulated chemokine (TARC) are overexpressed in asthmatic airways, and correlate with disease severity. In the lungs, TSLP may be released by bronchial epithelial cells in response to allergens and viral infections. TSLP signals through an IL-7Rα/TSLPR heterodimer found in a broad range of tissues and cell types, including epithelial cells, endothelial cells, neutrophils, macrophages, and mast cells. The binding of TSLP to its receptor induces a conformational change that activates JAK1 and JAK2 to phosphorylate various transcription factors, including STAT3 and STAT5. In immune cells, this triggers a cascade of intracellular events that result in cell proliferation, anti-apoptosis, dendritic cell migration, and production of Th2 cytokines and chemokines. In peripheral blood mononuclear cells (PBMC), TSLP has a proinflammatory effect by activating myeloid dendritic cells to attract and stimulate T cells, a process mediated by the chemoattractant TARC.
The potencies of the test compounds were measured for inhibition of TARC release.
PBMC aliquots (previously isolated from whole blood and frozen in aliquots at −80° C.) from 3 to 5 donors were thawed at 37° C. and added dropwise to 40 mL pre-warmed, sterile-filtered, complete RPMI media in 50 mL Falcon tubes. Cells were pelleted and resuspended in complete media at 2.24×10^6 cells/mL. […] Cells were allowed to rest for 1 hour at 37° C. with 5% CO2.
Compounds were received as 10 mM stock solutions in DMSO. 3.7-fold serial dilutions were performed to generate 9 concentrations of test compound in DMSO at 300× the final assay test concentration. […] 95 μL of 0.2% DMSO in complete media was added to the untreated control wells. Cells were pre-treated with compound for 1 hour at 37° C. with 5% CO2 prior to stimulation.
Immediately prior to use, an aliquot was thawed and prepared at 20× the final assay concentration in complete media. 10 μL of 20×TSLP was added to each well of PBMC, for a final assay concentration of 10 ng/mL. 10 μL of complete media was added to the unstimulated control wells. Cells were stimulated in the presence of compound for 48 hours at 37° C. with 5% CO2.
Following stimulation, the cell culture supernatants were harvested and TARC levels were detected by enzyme-linked immunosorbent assay (ELISA), using Human CCL17/TARC Quantikine ELISA Kit (R&D Systems # DDN00) according to the manufacturer's instructions.
For dose response analysis, the log [test compound (M)] was plotted versus the percent response values for each donor, and IC50 values were determined using a nonlinear regression analysis with GraphPad Prism Software using the 4-parameter sigmoidal dose-response algorithm with variable slope. Data are expressed as mean pIC50 (negative decadic logarithm IC50) values calculated from pIC50 values of individual donors and rounded to one decimal place.

Data set [2] concerns IL-2 stimulated STAT5 phosphorylation in Tall-1 human T cell line. The data set can be described thus: Inhibition of IL-2 stimulated pSTAT5 in Tall-1 T cells. It counts as cell-based. The procedure:
Assay 2: Inhibition of IL-2 Stimulated pSTAT5 in Tall-1 T Cells
The potency of test compounds for inhibition of interleukin-2 (IL-2) stimulated STAT5 phosphorylation was measured in the Tall-1 human T cell line (DSMZ) using AlphaLisa.
Phosphorylated STAT5 was measured via the AlphaLISA SureFire Ultra pSTAT5 (Tyr694/699) kit (PerkinElmer).
Compounds were serially diluted in DMSO and dispensed acoustically to empty wells. Assay media (phenol red-free DMEM (Life Technologies) supplemented with 10% FBS (ATCC)) was dispensed (4 μL/well) and plates shaken at 900 rpm for 10 mins. Cells were seeded at 45,000 cells/well in assay media (4 μL/well), and incubated at 37° C., 5% CO2 for 1 hour, followed by the addition of IL-2 (R&D Systems; final concentration 300 ng/mL) in pre-warmed assay media (4 μL) for 30 minutes. […] The lysate was shaken at 900 rpm for 10 minutes at room temperature (RT). Phosphorylated STAT5 was measured via the pSTAT5 AlphaLisa kit (PerkinElmer). Freshly prepared acceptor bead mixture was dispensed onto lysate (5 μL) under green filtered <100 lux light. Plates were shaken at 900 rpm for 2 mins, briefly spun down, and incubated for 2 hrs at RT in the dark. Donor beads were dispensed (5 μL) under green filtered <100 lux light. Plates were shaken at 900 rpm for 2 minutes, briefly spun down, and incubated overnight at RT in the dark. Luminescence was measured with excitation at 689 nm and emission at 570 nm using an EnVision plate reader (PerkinElmer) under green filtered <100 lux light.
To determine the inhibitory potency of test compounds in response to IL-2, the average emission intensity of beads bound to pSTAT5 was measured in a human T cell line. IC50 values were determined from analysis of the inhibition curves of signal intensity versus compound concentration. Data are expressed as pIC50 (negative decadic logarithm IC50) values (mean±standard deviation).

The target of data set [3] is Tyk2 (Homo sapiens (Human), UniProt P29597). Briefly: Biochemical JAK kinase assay (LanthaScreen), Tyk2. The settings on record: converted from pIC50 using Cheng-Prusoff; ATP 10 μM. The protocol: (§1) Assay 1: Biochemical JAK Kinase Assays
Tyk2, sequence (P29597 whole entry): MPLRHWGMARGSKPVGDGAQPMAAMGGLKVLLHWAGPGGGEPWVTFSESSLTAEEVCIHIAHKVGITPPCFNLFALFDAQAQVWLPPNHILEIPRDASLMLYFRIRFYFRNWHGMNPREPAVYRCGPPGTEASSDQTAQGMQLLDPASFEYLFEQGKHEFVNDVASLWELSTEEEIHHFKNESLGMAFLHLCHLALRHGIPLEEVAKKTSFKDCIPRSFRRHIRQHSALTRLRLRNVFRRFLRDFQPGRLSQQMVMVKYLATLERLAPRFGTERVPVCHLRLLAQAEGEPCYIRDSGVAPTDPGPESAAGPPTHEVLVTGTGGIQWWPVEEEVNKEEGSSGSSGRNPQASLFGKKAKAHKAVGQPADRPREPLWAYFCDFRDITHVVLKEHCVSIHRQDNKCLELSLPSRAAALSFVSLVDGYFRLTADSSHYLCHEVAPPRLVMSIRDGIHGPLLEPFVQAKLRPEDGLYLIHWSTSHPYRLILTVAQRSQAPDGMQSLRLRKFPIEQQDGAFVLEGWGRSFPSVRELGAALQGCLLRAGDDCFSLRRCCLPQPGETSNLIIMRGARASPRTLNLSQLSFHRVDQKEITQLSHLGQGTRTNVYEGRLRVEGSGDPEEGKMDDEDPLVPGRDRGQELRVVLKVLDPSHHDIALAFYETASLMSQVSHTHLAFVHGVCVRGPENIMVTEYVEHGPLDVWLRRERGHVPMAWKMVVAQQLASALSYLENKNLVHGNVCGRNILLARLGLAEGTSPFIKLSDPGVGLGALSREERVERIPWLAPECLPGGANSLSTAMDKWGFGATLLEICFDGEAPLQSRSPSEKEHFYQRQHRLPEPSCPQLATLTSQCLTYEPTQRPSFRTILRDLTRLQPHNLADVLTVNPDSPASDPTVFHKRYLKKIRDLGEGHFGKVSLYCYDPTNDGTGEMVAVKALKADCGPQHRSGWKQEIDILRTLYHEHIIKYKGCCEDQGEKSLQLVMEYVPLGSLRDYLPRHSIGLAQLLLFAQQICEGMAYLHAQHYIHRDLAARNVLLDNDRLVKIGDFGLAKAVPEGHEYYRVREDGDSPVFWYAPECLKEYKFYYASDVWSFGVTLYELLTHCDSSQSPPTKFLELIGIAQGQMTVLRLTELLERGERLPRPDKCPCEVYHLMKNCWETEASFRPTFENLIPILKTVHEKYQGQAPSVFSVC
(§2) A panel of four LanthaScreen JAK biochemical assays (JAK1, 2, 3 and Tyk2) were carried in a common kinase reaction buffer (50 mM HEPES, pH 7.5, 0.01% Brij-35, 10 mM MgCl2, and 1 mM EGTA). Recombinant GST-tagged JAK enzymes and a GFP-tagged STAT1 peptide substrate were obtained from Life Technologies.
(§3) Serially diluted compounds were pre-incubated with each of the four JAK enzymes and the substrate in white 384-well microplates (Corning) at ambient temperature for 1 h. ATP was subsequently added to initiate the kinase reactions in 10 μL total volume, with 1% DMSO. […] Kinase reactions were allowed to proceed for 1 hour at ambient temperature before a 10 μL preparation of EDTA (10 mM final concentration) and Tb-anti-pSTAT1 (pTyr701) antibody (Life Technologies, 2 nM final concentration) in TR-FRET dilution buffer (Life Technologies) was added. The plates were allowed to incubate at ambient temperature for 1 h before being read on the EnVision reader (Perkin Elmer). Emission ratio signals (520 nm/495 nm) were recorded and utilized to calculate the percent inhibition values based on DMSO and background controls.
(§4) For dose-response analysis, percent inhibition data were plotted vs. compound concentrations, and IC50 values were determined from a 4-parameter robust fit model with the Prism software (GraphPad Software). Results were expressed as pIC50 (negative logarithm of IC50) and subsequently converted to pKi (negative logarithm of dissociation constant, Ki) using the Cheng-Prusoff equation.
Background: TR-FRET usually uses a lanthanide donor and a delayed reading to cut background.

For data set [4], the target named is JAK1 (Homo sapiens (Human), UniProt P23458). The data set can be described thus: Biochemical JAK kinase assay (LanthaScreen), JAK1. The conditions noted are these: converted from pIC50 using Cheng-Prusoff; ATP 25 μM. The procedure:
as §1, §2, §3, §4

Data set [5] deals with JAK3 (Homo sapiens (Human), UniProt P52333). Briefly: Biochemical JAK kinase assay (LanthaScreen), JAK3. The settings on record: converted from pIC50 using Cheng-Prusoff; ATP 1.6 μM. The procedure: as §1, §2, §3, §4
JAK3, sequence (P52333 whole entry): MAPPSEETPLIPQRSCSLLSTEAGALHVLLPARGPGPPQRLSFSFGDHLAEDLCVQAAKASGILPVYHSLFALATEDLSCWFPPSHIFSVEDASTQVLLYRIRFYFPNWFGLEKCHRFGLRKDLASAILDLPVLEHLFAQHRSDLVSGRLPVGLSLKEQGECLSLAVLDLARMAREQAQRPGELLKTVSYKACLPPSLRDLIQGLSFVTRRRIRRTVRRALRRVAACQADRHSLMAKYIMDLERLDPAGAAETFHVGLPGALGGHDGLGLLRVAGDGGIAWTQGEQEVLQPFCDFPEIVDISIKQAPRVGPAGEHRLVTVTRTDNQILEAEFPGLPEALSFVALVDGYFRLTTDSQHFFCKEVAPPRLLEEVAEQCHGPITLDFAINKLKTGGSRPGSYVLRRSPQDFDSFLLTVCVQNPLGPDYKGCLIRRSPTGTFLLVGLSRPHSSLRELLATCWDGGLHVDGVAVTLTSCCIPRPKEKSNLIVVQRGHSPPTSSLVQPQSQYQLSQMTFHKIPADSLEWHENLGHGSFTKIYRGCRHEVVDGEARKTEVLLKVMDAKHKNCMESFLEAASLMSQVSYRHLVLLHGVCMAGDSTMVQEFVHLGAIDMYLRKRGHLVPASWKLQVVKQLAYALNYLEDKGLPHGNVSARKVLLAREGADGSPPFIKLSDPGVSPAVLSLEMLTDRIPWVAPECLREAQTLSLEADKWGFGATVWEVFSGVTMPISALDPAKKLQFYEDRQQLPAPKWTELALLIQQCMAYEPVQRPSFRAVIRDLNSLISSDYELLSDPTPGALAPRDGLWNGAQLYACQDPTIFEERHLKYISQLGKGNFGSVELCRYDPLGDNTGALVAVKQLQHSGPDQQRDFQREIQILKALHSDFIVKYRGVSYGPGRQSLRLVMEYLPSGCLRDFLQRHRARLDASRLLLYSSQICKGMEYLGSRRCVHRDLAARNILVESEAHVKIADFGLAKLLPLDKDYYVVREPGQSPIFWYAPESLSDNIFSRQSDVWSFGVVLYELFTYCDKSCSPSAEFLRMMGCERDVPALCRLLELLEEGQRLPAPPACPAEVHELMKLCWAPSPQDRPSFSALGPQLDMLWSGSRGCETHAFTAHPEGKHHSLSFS
For data set [6], the target named is JAK2 (Homo sapiens (Human), UniProt O60674). Briefly: Biochemical JAK kinase assay (LanthaScreen), JAK2. The conditions noted are these: converted from pIC50 using Cheng-Prusoff; ATP 3 μM. The protocol:
as §1, §2, §3, §4

Data set [7] can be described thus: Lung and plasma exposure in mice after oral aspiration. It counts as in vivo. The settings on record: mouse, other: oral aspiration, 50 µg/animal; for Kp at 5 h: Balb/c, lung and plasma, lung ng/g to plasma ng/mL, mice, read-out: Lung to Plasma ratio at 5 hr; for concentration at 5 h: Balb/c mice, 1 mg/mL, 50 μL via oral aspiration. The procedure:
Adult Balb/c mice from Harlan were used in the assay. […] Animals were placed in lateral recumbency post dose and monitored for full recovery from anesthesia before being returned to their home cage. Four hours later, animals were once again briefly anesthetized and challenged with either vehicle or IL-13 (0.03 μg total dose delivered, 50 μL total volume) via oral aspiration before being monitored for recovery from anesthesia and returned to their home cage. One hour after vehicle or IL-13 administration, whole blood and lungs were collected for both pSTAT6 detection in lung homogenates using a Perkin Elmer AlphaLISA® SureFire® Ultra™ HVp-STAT6 (Tyr641) assay kit and for total drug concentration analysis in both lung and plasma. Blood samples were centrifuged (Eppendorf centrifuge, 5804R) for 4 minutes at approximately 12,000 rpm at 4° C. to collect plasma. […] Plasma and lung levels of test compound were determined by LC-MS analysis against analytical standards constructed into a standard curve in the test matrix. A lung to plasma ratio was determined as the ratio of the lung concentration in ng/g to the plasma concentration in ng/mL at 5 hours.

[8] abbreviates: lung, read-out: Lung Concentration (ng/g) at 5 hr.
The mark [9] stands for this setting: plasma, read-out: Plasma Concentration (ng/mL) at 5 hr.
Setting [10] is: IL-2 300 ng/mL, pSTAT5 AlphaLisa, Tall-1 cells, read-out: Tall-1 pIC50 (converted).

Molecules are shown by their SMILES. Where two headings read alike, the source gives them in different places.

JAK2, sequence (O60674 whole entry): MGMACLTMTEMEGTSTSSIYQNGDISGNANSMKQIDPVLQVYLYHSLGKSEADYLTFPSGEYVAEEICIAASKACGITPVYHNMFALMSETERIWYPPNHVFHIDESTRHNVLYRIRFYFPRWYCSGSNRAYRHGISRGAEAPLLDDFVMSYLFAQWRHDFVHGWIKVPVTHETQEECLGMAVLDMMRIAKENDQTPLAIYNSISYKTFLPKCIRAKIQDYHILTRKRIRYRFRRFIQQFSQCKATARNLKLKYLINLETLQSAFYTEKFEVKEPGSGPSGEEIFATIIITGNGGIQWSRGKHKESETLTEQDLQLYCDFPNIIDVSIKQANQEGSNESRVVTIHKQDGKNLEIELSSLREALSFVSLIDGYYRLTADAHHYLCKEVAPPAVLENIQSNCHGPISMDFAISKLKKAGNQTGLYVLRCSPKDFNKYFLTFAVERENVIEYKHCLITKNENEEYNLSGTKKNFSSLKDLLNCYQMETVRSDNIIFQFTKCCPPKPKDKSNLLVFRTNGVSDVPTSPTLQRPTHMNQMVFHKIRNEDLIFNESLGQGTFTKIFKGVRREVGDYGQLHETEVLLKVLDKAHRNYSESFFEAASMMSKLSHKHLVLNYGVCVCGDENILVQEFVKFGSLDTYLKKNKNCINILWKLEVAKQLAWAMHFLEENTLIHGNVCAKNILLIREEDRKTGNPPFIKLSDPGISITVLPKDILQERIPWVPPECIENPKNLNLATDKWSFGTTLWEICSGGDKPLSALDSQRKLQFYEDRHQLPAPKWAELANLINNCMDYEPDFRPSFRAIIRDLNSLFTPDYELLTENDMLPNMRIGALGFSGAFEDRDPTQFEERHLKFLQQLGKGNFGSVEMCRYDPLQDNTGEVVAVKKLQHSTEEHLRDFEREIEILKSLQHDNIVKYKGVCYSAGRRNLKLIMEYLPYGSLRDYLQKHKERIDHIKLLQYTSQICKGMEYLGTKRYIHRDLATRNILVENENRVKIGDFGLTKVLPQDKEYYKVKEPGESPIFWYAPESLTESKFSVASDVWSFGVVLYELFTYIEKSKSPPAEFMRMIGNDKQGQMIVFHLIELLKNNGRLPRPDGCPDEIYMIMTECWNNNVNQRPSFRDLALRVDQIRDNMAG
JAK1, sequence (P23458 whole entry): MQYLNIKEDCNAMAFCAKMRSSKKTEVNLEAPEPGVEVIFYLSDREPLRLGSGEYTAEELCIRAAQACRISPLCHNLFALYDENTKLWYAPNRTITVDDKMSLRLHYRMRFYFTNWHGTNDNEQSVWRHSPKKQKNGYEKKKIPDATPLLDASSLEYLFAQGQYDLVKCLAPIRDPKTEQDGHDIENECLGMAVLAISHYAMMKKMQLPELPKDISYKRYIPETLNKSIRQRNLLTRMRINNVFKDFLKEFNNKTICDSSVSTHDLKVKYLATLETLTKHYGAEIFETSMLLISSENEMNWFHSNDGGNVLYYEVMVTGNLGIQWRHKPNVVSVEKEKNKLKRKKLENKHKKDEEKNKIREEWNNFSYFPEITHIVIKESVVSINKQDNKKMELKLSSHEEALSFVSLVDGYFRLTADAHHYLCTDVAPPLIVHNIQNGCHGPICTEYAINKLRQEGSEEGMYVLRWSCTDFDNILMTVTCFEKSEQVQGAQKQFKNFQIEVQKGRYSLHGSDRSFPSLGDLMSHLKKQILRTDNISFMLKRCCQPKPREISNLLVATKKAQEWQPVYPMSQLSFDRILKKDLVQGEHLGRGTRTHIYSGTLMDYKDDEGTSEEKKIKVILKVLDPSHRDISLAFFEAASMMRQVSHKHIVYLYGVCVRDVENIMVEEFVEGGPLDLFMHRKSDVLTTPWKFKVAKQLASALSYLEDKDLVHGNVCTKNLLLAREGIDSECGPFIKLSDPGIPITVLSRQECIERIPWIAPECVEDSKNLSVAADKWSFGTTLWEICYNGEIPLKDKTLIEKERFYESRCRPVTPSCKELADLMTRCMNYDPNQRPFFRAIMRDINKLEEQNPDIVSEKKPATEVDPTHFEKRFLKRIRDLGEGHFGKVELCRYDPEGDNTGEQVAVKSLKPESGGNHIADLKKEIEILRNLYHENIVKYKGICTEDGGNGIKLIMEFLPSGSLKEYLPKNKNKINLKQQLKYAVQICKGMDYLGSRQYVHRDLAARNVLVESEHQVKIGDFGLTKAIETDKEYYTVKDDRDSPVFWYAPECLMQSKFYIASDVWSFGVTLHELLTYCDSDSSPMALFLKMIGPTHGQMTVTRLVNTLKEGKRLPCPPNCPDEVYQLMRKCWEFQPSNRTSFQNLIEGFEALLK

Turning to `CCc1cc(O)ccc1-c1ccc2c(-c3nc4c([nH]3)CN(C(C)C)[C@H](C(=O)N3CCCN(C)CC3)C4)n[nH]c2c1` [Example 4, (S)-(2-(6-(2-ethyl-4-hydroxyphenyl)-1H-indazol-3-yl)-5-isopropyl-4,5,6,7-tetrahydro-3H-imidazo[4,5-c]pyridin-6-yl)(4-methyl-1,4-diazepan-1-yl)methanone], the IC50 in data set [1] was 158 nM; in data set [2] (TALL-1, read-out: Tall-1 pIC50 (converted)), 2.51 nM.

Turning to `CCc1cc(O)ccc1-c1ccc2c(-c3nc4c([nH]3)CN(CC)[C@H](C(=O)N3CC(C)(N(C)C)C3)C4)n[nH]c2c1` [Example 10, (S)-(3-(dimethylamino)-3-methylazetidin-1-yl)(5-ethyl-2-(6-(2-ethyl-4-hydroxyphenyl)-1H-indazol-3-yl)-4,5,6,7-tetrahydro-3H-imidazo[4,5-c]pyridin-6-yl)methan One], the “Tyk2 pKi” value in data set [3] was 9.1. In data set [4], the “JAK1 pKi” value stood at 10.4. In data set [5], the “JAK3 pKi” value amounted to 10.2. Also, the “JAK2 pKi” value in data set [6] came out at 10.6. Besides, the Kp at 5 h in data set [7] is 216. Further, the concentration at 5 h in data set [7] (setting [8]) was 5130 ± 2200 ng/g; in data set [7] (setting [9]) it was 24 ± 6 ng/mL. The IC50 in data set [2] (setting [10]) is 2.51 nM.

With `CCCN1Cc2[nH]c(-c3n[nH]c4cc(-c5ccc(O)cc5CC)ccc34)nc2C[C@H]1C(=O)N1CC(N(C)C)C1` [Example 12, (S)-(3-(dimethylamino)azetidin-1-yl)(2-(6-(2-ethyl-4-hydroxyphenyl)-1H-indazol-3-yl)-5-propyl-4,5,6,7-tetrahydro-3H-imidazo[4,5-c]pyridin-6-yl)methan One], the “Tyk2 pKi” value in data set [3] is 9.0. Besides, in data set [4], the “JAK1 pKi” value is 10.5. In data set [5], the “JAK3 pKi” value is 10.3. In addition, the “JAK2 pKi” value in data set [6] is listed as 10.6. Also, in data set [7], the Kp at 5 h was 281. Moreover, the figures for the concentration at 5 h in data set [7] (setting [8]) and in data set [7] (setting [9]) were 6940 ± 4250 ng/g and 25 ± 9 ng/mL, respectively. The IC50 in data set [2] (setting [10]) is 2 nM.

`CCCN1Cc2[nH]c(-c3n[nH]c4cc(-c5ccc(O)cc5CC)ccc34)nc2C[C@H]1C(=O)N1CC(C)(N(C)C)C1` [Example 13, (S)-(3-(dimethylamino)-3-methylazetidin-1-yl)(2-(6-(2-ethyl-4-hydroxyphenyl)-1H-indazol-3-yl)-5-propyl-4,5,6,7-tetrahydro-3H-imidazo[4,5-c]pyridin-6-yl)methan One]: the “Tyk2 pKi” value in data set [3] is 9.0. Moreover, the “JAK1 pKi” value in data set [4] came out at 10.3. The “JAK3 pKi” value in data set [5] is on record as 9.8. Besides, the “JAK2 pKi” value in data set [6] is 10.5. Moreover, the Kp at 5 h in data set [7] was 330. Also, the concentration at 5 h was determined as 7460 ± 3080 ng/g in data set [7] (setting [8]) and 23 ± 2.5 ng/mL in data set [7] (setting [9]). Also, the IC50 in data set [2] (setting [10]) is 2.51 nM.

For the molecule `CCc1cc(O)ccc1-c1ccc2c(-c3nc4c([nH]3)CN(C(C)C)[C@H](C(=O)N3CC(C)(N(C)C)C3)C4)n[nH]c2c1` [Example 11, (S)-(3-(dimethylamino)-3-methylazetidin-1-yl)(2-(6-(2-ethyl-4-hydroxyphenyl)-1H-indazol-3-yl)-5-isopropyl-4,5,6,7-tetrahydro-3H-imidazo[4,5-c]pyridin-6-yl)methan One], the “Tyk2 pKi” value in data set [3] was determined as 9.1. Also, the “JAK1 pKi” value in data set [4] stood at 10.0. Further, the “JAK3 pKi” value in data set [5] was determined as 9.9. Besides, in data set [6], the “JAK2 pKi” value is 10.8. In data set [7], the Kp at 5 h came to 271. The concentration at 5 h is 15000 ± 3350 ng/g in data set [7] (setting [8]) and 55 ± 21 ng/mL in data set [7] (setting [9]). Also, in data set [2] (setting [10]), the IC50 was 2 nM.

For the molecule `CCc1cc(O)ccc1-c1ccc2c(-c3nc4c([nH]3)CN(CC)[C@H](C(=O)N3CC(N(C)C)C3)C4)n[nH]c2c1` [Example 9, (S)-(3-(dimethylamino)azetidin-1-yl)(5-ethyl-2-(6-(2-ethyl-4-hydroxyphenyl)-1H-indazol-3-yl)-4,5,6,7-tetrahydro-3H-imidazo[4,5-c]pyridin-6-yl)methanone], the “Tyk2 pKi” value in data set [3] was 9.2. Besides, in data set [4], the “JAK1 pKi” value came to 10.3. For the same molecule, in data set [5], the “JAK3 pKi” value came out at 10.3. Further, in data set [6], the “JAK2 pKi” value was found to be 10.7. In data set [7], the Kp at 5 h was found to be 339. In addition, the concentration at 5 h in data set [7] (setting [8]) is 7750 ± 1650 ng/g; in data set [7] (setting [9]), 23 ± 6 ng/mL. For the same molecule, in data set [2] (setting [10]), the IC50 is 2 nM.
